Test results as given in patent publication EP1488698A1, “Compositions for descreasing intracellular inositol trisphosphate concentration and uses thereof” (priority 1995, dated 1997).
Several values for one entry are separate records, joined by “and”; a condition that tells them apart may be missing. Identical values can stand only once.

Columns and labels:
[1] = tested on: male F344 rats; test: Behavioral analysis after ICV infusion (quisqualate excitotoxicity model); assay type: in vivo; conditions: for effective dose (to prevent or reverse quisqualate effects): pilot testing, the higher doses appeared to be more reliable; for number of convulsions or spasms: pretreatment with Psychosine (125 nmoles) or Lysosphingomyelin (125 nmoles and 150 nmoles) ICV 30 minutes before quisqualate 225 nmoles, n = 6 per group, Fig. 8; for convulsant behavior, compound alone: psychosine at 125 nmoles, lysosphingomyelin at 125 nmoles and 150 nmoles, ICV without quisqualate; for behavioral and histological changes caused by quisqualate: rats pretreated with 125 nmoles of the lysosphingolipid; for BEHAVIORAL RESPONSE: 30 minutes prior to quisqualate
Procedure: (§1) The animals used in this experiment were male F344 rats (Charles River Breeding Laboratories). The animals were housed individually, exposed to a 12-hour light-dark cycle, and allowed free access to food and water. The animals weighed approximately 250 g at the beginning of each experiment and were weighed daily. In addition, the animals were habituated to handling before each experiment.
(§2) Before administering various compounds, the animals were anesthetized with sodium pentobarbital (50 mg/kg, i.p.) and positioned in a sterotaxic instrument. A 26 gauge cannula was inserted into the cerebral ventricle at the following co-ordinates: 1.0 mm posterior to bregma, 1.5 mm lateral to the midline, and 4.0 mm below the dorsal surface of the neocortex. Cannulas were capped and fixed in place with dental cement. One week after cannulation, 10 µl of each of the treatment drugs was infused, ICV (i.e. into the ventricals of the brain), via a micropump at a rate of 10 µl/min. For this procedure, the animals were lightly restrained and unanesthetized. Following administration of the compound, the infusion cannula remained in position for one minute, after which the permanent in situ cannula was capped.
(§3) The compounds administered were obtained from a commercial supplier (Sigma Chemical Co., St. Louis, MO) and dissolved in saline prior to injection. These compounds included quisqualate (injected at doses ranging from 100 nmole/10 µl to 1 µmole/10 µl), lysocerebroside, and lysophingomyelin (which were injected at doses of 25 nmoles/10 µl to 150 nmoles/10 µl).
Pilot studies identified several specific behavioral measures that could be used to indicate excessive activation of the metabotropic receptor (see Table 3). […] The experiments that follow were based on an analysis of these behaviors over a two hour period after administration of the compounds of the invention. Behavioral observation was carried out by two trained observers, who worked independently of one another and who were blind to the experimental groups. […] Frequency and duration means were computed by subtracting pre-infusion means from post-infusion means.
The experiment began one week after ICV cannulation. […] Following the baseline observation period, animals received the first of two ICV infusions (all infusions were of a 10 µl volume that was administered over a 1 minute period). For the first five groups listed above, this consisted of saline (10 µl/minute), for the following 3 groups the infusions were psychosine at 125 nmoles, lysosphingomyelin at 125 nmoles, or lysosphingomyelin at 150 nmoles, respectively. Thirty minutes later, all animals received the second infusion which, for the first five groups listed above, consisted of saline, quisqualate at 225 nmoles, psychosine at 125 nmoles, lysosphingomyelin at 125 nmoles, and lysosphingomyelin at 150 nmoles respectively. […] Following the second infusion animals were returned to their cages, and observed continuously over the subsequent 2 hours.

[2] = tested on: hippocampal neurons; test: Histological analysis of brain (cresyl violet) seven days after ICV infusion; assay type: in vivo, rats; conditions: pretreatment with psychosine 125 nmoles; quisqualate 225 nmoles ICV; Figs. 7A and 7B
Procedure: as §1, §2, §3
Seven days after the compounds were administered, animals were sacrificed by transcardial perfusion with neutralized, buffered 10% formalin-saline. Their brains were removed, post-fixed overnight in 10% formalin-saline, and sectioned along the coronal plane (into 50 µm thick sections) on a freezing microtome. The sections were stained with cresyl violet to determine the extent of cellular destruction. […]
Given that high concentrations of metabotropic receptors are located in the hippocampus, and that the hippocampus is particularly vulnerable to the effects of a variety of insults including ischemia and hypoxia, this region was examined for evidence of neuronal degeneration due to glutamate excitoxicity.

Structure (SMILES)	effective dose (to prevent or reverse quisqualate effects) ([1]; ICV, rats)	sedation ([1]; Lysosphingomyelin 150 nmoles ICV, rats)	behavioral or neurotoxic effects of the compounds ([1]; doses as high as 125 nmoles per animal, ICV, rats)	number of convulsions or spasms [1]	convulsant behavior, compound alone [1]	duration of teeth chattering, akinesia and mobilization, compared with quisqualate alone ([1]; quisqualate 225 nmoles and lysophingomyelin 150 nmoles ICV, Fig. 9)	behavioral and histological changes caused by quisqualate ([1]; ICV)	neuronal loss (CA1 pyramidal neurons) caused by quisqualate [2]	BEHAVIORAL RESPONSE ([1]; Psychosine 25 nmoles + Quisqualate 200 moles, ICV)	BEHAVIORAL RESPONSE ([1]; Psychosine 50 nmoles + Quisqualate 200 moles, ICV)	BEHAVIORAL RESPONSE ([1]; Psychosine 100 nmoles + Quisqualate 200 nmoles, ICV)	BEHAVIORAL RESPONSE ([1]; Psychosine 100 nmoles + Quisqualate 250 nmoles, ICV)	BEHAVIORAL RESPONSE ([1]; Psychosine 125 nmoles + Quisqualate 225 nmoles, ICV)	BEHAVIORAL RESPONSE ([1]; Psychosine 150 nmoles + Quisqualate 250 nmoles, ICV)	BEHAVIORAL RESPONSE ([1]; psychosine 125 moles + Quisqualate 200 moles, ICV)
CCCCCCCCCCCCC/C=C/[C@@H](O)[C@@H](N)COP(=O)([O-])OCC[N+](C)(C)C [lysosphingomyelin, sphingosyl phosphorylcholine]	125 nmol and 150 nmol	mild sedation	no behavioral or neurotoxic effects were observed	significantly (p<01) attenuated	displayed no convulsant behavior	quisqualate alone spent significantly (p< .01) more time engaged in these behaviors	absent	–	–	–	–	–	–	–	–
CCCCCCCCCCCCC/C=C/[C@@H](O)[C@@H](N)CO[C@@H]1O[C@H](CO)[C@H](O)[C@H](O)[C@H]1O [psychosine]	125 nmol	–	–	significantly (p<01) attenuated	displayed no convulsant behavior	–	absent	prevents the neuronal loss caused by quisqualate	Moderate convulsions, teeth chattering, akinesia and hyperactivity	Moderate convulsions, teeth chattering, akinesia and hyperactivity	Almost complete attenuation of Quisqualate response, some teeth chattering post-injection	Moderate convulsions, teeth chattering, akinesia. Quisqualate markedly reduced compared to typical Quisqualate response at this dose.	Complete attenuation of Quisqualate response	Almost complete attenuation of Quisqualate response	Complete attenuation of Quisqualate response
